{
  "source": "patent US10925872B2",
  "about": "“Methods of treating cochlear synaptopathy” (PIPELINE THERAPEUTICS, INC., priority 2016, dated 2021)",
  "key": {"DCC α-fragment [1]": {"test_system": "DCC α-fragment", "assay": "DCC α-fragment Western blot, mouse ex vivo embryonic spinal cord", "format": "cell-based, CD-1 mice", "settings": "embryonic day 15 spinal cord segments, 1 μM, 24 h, normalized to actin", "text": "Previous reports have shown that DCC (deleted in colorectal cancer) is a γ-secretase substrate. DCC is the receptor for the guidance molecule, netrin, and its activation results in neuronal axon outgrowth, axon turning and synapse formation. Embryonic spinal cords of presenilin knockout mice treated display persistent expression of the DCC α-fragment; these fragments can enhance netrin-DCC mediated events, including axon outgrowth in cultured motor neurons (Taniguchi et al., 2003, J. Biol. Chem., 278:30425-30428, and Bai et al., 2011, Cell, 144(1): 106-18). The following studies were performed using GSM, “RO”, as well as the GSI, Compound I. RO has the structure:\nSpinal cords from embryonic day 15 CD-1 mice were collected and cut into 1-2 mm segments and transferred to serum-free growth media (DMEM-F12, N2 and B27 serum supplements, penicillin/streptomycin) with 1 μM RO or 1 μM Compound I. Segments were cultured for 24 h (37° C., 5% CO2) then processed for Western blot. Membranes were probed with a DCC antibody recognizing the intracellular domain and bands were normalized to actin."}, "DCC α-fragment [2]": {"test_system": "DCC α-fragment", "assay": "DCC α-fragment Western blot of cochlea after round window delivery in vivo", "set-up": "species or system CBA/J mice", "settings": "2% in vehicle, 2 μl bilaterally to the round window, one week later", "experimental": "Compound I (2% in vehicle, 2 μl) or vehicle (2 μl) was delivered bilaterally to the round window of CBA/J mice. One week later, cochlea were collected and processed for Western blot. Both cochlea from two animals were used to generate each data point. Cochlea were homogenized in 50 μL radioimmunoprecipitation assay buffer then allowed to lyse further at 4° C. for 1 h. Bone was spun out and 4× sample loading buffer added. Samples were run on a 4-15% TGX gradient gel (BioRad, Hercules, Calif.) and transferred to a nitrocellulose membrane and blocked with Odyssey Blocking Buffer (LI-COR, NE). Blots were probed with mouse DCC (BD Biosciences, San Jose, Calif.) at 1:500, and rabbit actin (loading control) antibodies (Li-Cor, NE) in blocking buffer containing 0.1% Tween-20. Membranes were washed with PBS/0.1% Tween then incubated in secondary antibody (goat anti-mouse IRDye 680LT and goat anti-rabbit IRDye 800LT, both from LI-COR, NE) diluted 1:10,000 in blocking buffer containing 0.1% Tween-20 and 0.01% SDS. Membranes were washed in PBS then imaged on a LiCor Odyssey Classic scanner and the DCC α-fragment quantified using ImageJ."}, "[3]": {"test_system": "Type I spiral ganglion neurons", "assay": "Type I spiral ganglion neuron neurite outgrowth with GSIs", "format": "cell-based, CD-1 mice", "settings": "24-48 h, 0.1% DMSO", "experimental": "Mouse spiral ganglion neurons (SGN) were harvested from CD-1 mice (postnatal day 3 to 5), dissociated and cultured on collagen I in serum free media. Cells were treated for 24-48 h with test compound in 0.1% DMSO then immunostained with the neurite marker, Tuj1 and imaged. Neurite length was quantified using ImageJ software (developed by NIH and available publicly). Only Tuj1^+ cells with clear bipolar morphology characteristic of Type I SGNs were quantified. The test compounds were Compound I, Compound II, and RO4929097, as well as the Notch sparing GSI, BMS-708163; NT-3 was included as positive control. […] Moreover, BMS-708163, a Notch-sparing GSI, and Compound I, a Notch inhibiting GSI, both increased type I SGN neurite outgrowth (FIG. 6C)."}},
  "data": [
    {"compound": "C[C@H](OC(=O)NCC(F)(F)C(F)(F)F)C(=O)N[C@@H]1C(=O)Nc2ccccc2-c2ccccc21", "note": "[Compound I, (2,2,3,3,3-pentafluoropropyl)-carbamic acid (S)-1-((S)-6-oxo-6,7-dihydro-5H-dibenzo[b,d]azepin-7-ylcarbamoyl) ethyl ester]", "values": [
      {"measurement": "DCC α-fragment level compared to the vehicle group", "setting": "DCC α-fragment [1]", "result": "Increase in α-fragment"},
      {"measurement": "DCC α-fragment compared to vehicle alone", "setting": "DCC α-fragment [2]", "result": "approximately two fold increase"},
      {"measurement": "lengths of Type I SGN neurites", "setting": "[3]", "result": "significant increase"}
    ]}
  ]
}
